Laboratory results reported in ChEMBL document CHEMBL4257560, “Synthesis and antiviral activity of camphor-based 1,3-thiazolidin-4-one and thiazole derivatives as Orthopoxvirus-reproduction inhibitors” (Medchemcomm, 2018).

Key:
[1] = system: Vaccinia virus; test: Antiviral activity against Vaccinia virus Copenhagen infected in African green monkey Vero cells assessed as inhibition of viral reproduction after 4 days by neural red dye-based assay; format: functional, organism-based, Orthopoxvirus vaccinia
[2] = Cytotoxicity against African green monkey Vero cells after 4 days by neural red dye-based assay; format: cell-based; conditions: chlorocebus sabaeus, read-out: TC50
[3] = Selectivity index, ratio of TC50 for African green monkey Vero cells to IC50 for Vaccinia virus Copenhagen; format: toxicity; conditions: read-out: Selectivity Index
[4] = Orthopoxvirus vaccinia, Copenhagen, Vero, 96 h, read-out: IC50

SMILES | IC50 [1, 4] | CC50 at 96 h [2] | selectivity ratio [3] | IC50 ([1]; vero)
CC1(C)[C@H]2CC[C@]1(C)[C@H](OC(=O)CCN1CCOCC1)C2 | 3.5 µM |  |  | 
CCCCN1C(=O)CS/C1=N\N=C1/C[C@H]2CC[C@]1(C)C2(C)C | 3.2 µM | 25.2 µM | 8 | 
CC1(C)[C@@H]2CC[C@@]1(C)/C(=N/N=C1/NC(=S)CS1)C2 | 3.3 µM | 17.5 µM | 5 | 
C=CCN1C(=O)CS/C1=N\N=C1/C[C@H]2CC[C@]1(C)C2(C)C | 14.4 µM | 164 µM | 11 | 
CC1(C)[C@@H]2CC[C@@]1(C)/C(=N/Nc1nc(-c3ccc([N+](=O)[O-])cc3)cs1)C2 |  | 261 µM |  | Not Active
COc1ccc(-c2csc(N/N=C3\C[C@H]4CC[C@]3(C)C4(C)C)n2)cc1 | 3.7 µM | 93.6 µM | 26 | 
CC1(C)[C@@H]2CC[C@@]1(C)/C(=N/Nc1nc(-c3ccc(Cl)cc3)cs1)C2 | 2.7 µM | 64.1 µM | 24 | 
CC1(C)[C@@H]2CC[C@@]1(C)/C(=N/Nc1nc(-c3ccc(F)cc3)cs1)C2 |  | 176 µM |  | Not Active
CC1CCN(CCC(=O)N[C@@H]2C[C@H]3CC[C@]2(C)C3(C)C)CC1 | 2.5 µM |  |  | 
CC1(C)[C@@H]2CC[C@@]1(C)/C(=N/N=C1/NC(=O)/C(=C/c3ccccc3)S1)C2 | 5.2 µM | 14.5 µM | 3 | 
CC(C)CCN1C(=O)CS/C1=N\N=C1/C[C@H]2CC[C@]1(C)C2(C)C |  | 37.5 µM |  | Not Active
CC1(C)[C@@H]2CC[C@@]1(C)/C(=N/NC(N)=S)C2 | 17.7 µM | 225 µM | 13 | 
CC1(C)[C@@H]2CC[C@@]1(C)/C(=N/N=C1/NC(=O)CS1)C2 |  | 305 µM |  | Not Active
CC1(C)[C@@H]2CC[C@@]1(C)/C(=N/N=C1\SCC(=O)N1Cc1ccccc1)C2 |  | 288 µM |  | Not Active
Cc1ccc(-c2csc(N/N=C3\C[C@H]4CC[C@]3(C)C4(C)C)n2)cc1 | 4.5 µM | 13.7 µM | 3 | 
CC1(C)[C@@H]2CC[C@@]1(C)/C(=N/Nc1nc(-c3ccccc3)cs1)C2 | 3.2 µM | 13.9 µM |  | 
CC1(C)[C@@H]2CC[C@@]1(C)/C(=N/Nc1nc(-c3ccc(Br)cc3)cs1)C2 | 2.4 µM | 77.1 µM | 32 | 
Cc1ccc(/C=C2\S/C(=N\N=C3/C[C@H]4CC[C@]3(C)C4(C)C)NC2=O)cc1 (stereo in doubt) | 9.5 µM | 120 µM | 13 | 
Nc1ccn(C[C@@H](CO)OCP(=O)(O)O)c(=O)n1 [CIDOFOVIR] | 40 µM | 475 µM | 12 | 
